Our source for the EC50 and IC50 values is patent US9975896B2, “Inhibitors of transcription factors and uses thereof” (Dana-Farber Cancer Institute, Inc., priority 2013, dated 2018).

Each structure is given as a SMILES string. Read-outs that look alike come from different tables or passages of the source.

A word on the EC50: it is the concentration giving half of the maximal effect. Usually IC50 stands for the point on the concentration scale where inhibition reaches its midpoint.

The test system of test [1] is BRD4-dependent Nut-Midline Carcinoma line 797. Description: Cell viability (ATPlite) in BRD4 dependant cell line 797. Conditions: Homo sapiens. (In general: ATP-based viability assays read luminescence as a measure of living cells.)
Another test has as its target BRD4 (Homo sapiens, UniProt O60885). Description: In vitro AlphaScreen protein binding assay (competition with biotinylated JQ1). For orientation: Alpha assays give light when donor and acceptor beads are brought close together.
[2] abbreviates: Table 1, in vitro, AlphaScreen, inhibiting the activity of BRD4.
Where [3] appears, read: read-out: BRD4--IC50, Table 6, biochemical.
The mark [4] stands for this setting: read-out: BRD4--IC50, Table 7, biochemical.

As for `COc1ccc(Nc2c(-c3ccc(-c4c(C)noc4C)cc3)nc3ccc(Cl)cn23)cc1` [UMB23, 6-Chloro-2-(4-(3,5-dimethylisoxazol-4-yl)phenyl)-N-(4-methoxy-phenyl)imidazo-[1,2-α]pyridine-3-amine], the EC50 in test [1] and in test [1] (read-out: 797--EC50 (μM)) was 20.7 µM in each case. Further, the IC50 on BRD4 (setting [2]) and at BRD4 (setting [3]) was 31.5 µM each time.
`Cc1noc(C)c1-c1ccc(-c2nc3ccccn3c2NC(C)(C)C)cc1` [UMB29, N-(t-Butyl)-2-(4-(3,5-dimethylisoxazol-4-yl)phenyl)imidazo[1,2-α]pyridin-3-amine]: the EC50 in test [1] and in test [1] (read-out: 797--EC50 (μM)) was 2.04 µM in each case. In addition, the IC50 on BRD4 (setting [2]) and at BRD4 (setting [3]) was 0.479 µM in each case.
In turn, `Cc1noc(C)c1-c1cccc(-c2nc3ccccn3c2NCc2ccccc2)c1` [UMB26] had an EC50 in test [1] of 20.2 µM. Also, the IC50 at BRD4 (setting [2]) amounted to 5.1 µM.
On to `Cc1noc(C)c1-c1ccc(-c2nc3cnccn3c2NC(C)(C)C)cc1F` [UMB55, N-(tert-butyl)-2-(4-(3,5-dimethylisoxazol-4-yl)-3-fluorophenyl)imidazo[1,2-a]pyrazin-3-amine], for which, in test [1] (read-out: 797--EC50 (μM)), the EC50 is 12.8 µM. Further, at BRD4 (setting [4]), the IC50 amounted to 13 µM.
For the molecule `Cc1noc(C)c1-c1ccc(-c2nc3cnccn3c2NCC(=O)O)cc1` [Compound 22a, 2-((2-(4-(3,5-Dimethylisoxazol-4-yl)phenyl)imidazo[1,2-a]pyrazin-3-yl)amino)acetic acid], the IC50 at BRD4 (BRD4--IC50 (μM), Table 6, biochemical) was more than 100 µM.
Regarding `Cc1noc(C)c1-c1ccc(-c2nc3cnccn3c2NC(C)(C)C)nc1` [UMB54, N-(tert-butyl)-2-(5-(3,5-dimethylisoxazol-4-yl)pyridin-2-yl)imidazo[1,2-a]pyrazin-3-amine], the EC50 in test [1] (read-out: 797--EC50 (μM)) is 8.29 µM. The IC50 on BRD4 (setting [4]) was found to be 12.9 µM.
Turning to `Cc1noc(C)c1-c1ccc(-c2nc3cnccn3c2NC(C)C)cc1` [UMB57, 2-(4-(3,5-dimethylisoxazol-4-yl)phenyl)-N-isopropylimidazo[1,2-a]pyrazin-3-amine], the EC50 in test [1] (read-out: 797--EC50 (μM)) stood at 0.494 µM. Moreover, the IC50 on BRD4 (setting [3]) stood at 0.807 µM.
Take `CCCCNc1c(-c2ccc(-c3c(C)noc3C)cc2)nc2cnccn12` [Compound 35a, N-butyl-2-(4-(3,5-dimethylisoxazol-4-yl)phenyl)imidazo[1,2-a]pyrazin-3-amine]: the IC50 on BRD4 (setting [3]) came out at 1.66 µM.
For the molecule `Cc1noc(C)c1-c1ccc(-c2nc3ncccn3c2NC(C)(C)C)cc1` [Compound 33a, N-(Tert-butyl)-2-(4-(3,5-dimethylisoxazol-4-yl)phenyl)imidazo[1,2-a]pyrimidin-3-amine], the half-inhibitory concentration (IC50) on BRD4 (setting [3]) is 0.86 µM.
With `Cc1noc(C)c1-c1ccc(-c2nc3ccc(Cl)cn3c2NCc2ccccc2)cc1` [UMB20, N-Benzyl-6-chloro-2-(4-(3,5-dimethylisoxazol-4-yl)phenyl)imidazo[1,2-α]pyridin-3-amine], the EC50 in test [1] and in test [1] (read-out: 797--EC50 (μM)) was 18.4 µM throughout. Besides, the IC50 on BRD4 (setting [2]) and at BRD4 (setting [3]) was 11.8 µM throughout.
Consider `COc1ccc(Nc2c(-c3ccc(-c4c(C)noc4C)cc3)nc3cc(OC)ncn23)cc1` [UMB24, 2-(4-(3,5-Dimethylisoxazol-4-yl)phenyl)-7-methoxy-N-(4-methoxy-phenyl)imidazo[1,2-c]pyrimidin-3-amine], for which the EC50 in test [1] and in test [1] (read-out: 797--EC50 (μM)) was 11.8 µM in each case. In addition, the IC50 at BRD4 (setting [2]) and at BRD4 (setting [3]) was 2.89 µM in each case.
In the case of `Cc1noc(C)c1-c1ccc(-c2nc3ccccn3c2NC2CCCCC2)cc1` [UMB28, N-Cyclohexyl-2-(4-(3,5-dimethylisoxazol-4-yl)phenyl)imidazo[1,2-α]pyridin-3-amine], the EC50 in test [1] and in test [1] (read-out: 797--EC50 (μM)) was 5.07 µM in each case. For the same molecule, the concentration for half-maximal inhibition (IC50) at BRD4 (setting [2]) and on BRD4 (setting [3]) was 0.904 µM each time.
As for `Cc1noc(C)c1-c1ccc(-c2nc3ccccn3c2N)cc1` [Compound 12a, 2-(4-(3,5-Dimethylisoxazol-4-yl)phenyl)imidazo[1,2-a]pyridin-3-amine], the IC50 on BRD4 (setting [3]) is 3.89 µM.
Turning to `COC(=O)c1ccc2nc(-c3ccc(-c4c(C)noc4C)cc3)c(NC(C)(C)C)n2c1` [Compound 29a, Methyl 3-(tert-butylamino)-2-(4-(3,5-dimethylisoxazol-4-yl)phenyl)imidazo[1,2-a]pyridine-6-carboxylate], the IC50 on BRD4 (setting [3]) amounted to 1.62 µM.
Regarding `COc1cc(-c2c(C)noc2C)ccc1-c1nc2cnccn2c1NC(C)C` [Compound 40a, 2-(4-(3,5-dimethylisoxazol-4-yl)-2-methoxyphenyl)-N-isopropylimidazo[1,2-a]pyrazin-3-amine], on BRD4 (setting [4]), the IC50 amounted to 0.474 µM.
Take `Cc1noc(C)c1-c1ccc(-c2nc3ccncn3c2NC(C)(C)C)cc1` [UMB56, N-(Tert-butyl)-2-(4-(3,5-dimethylisoxazol-4-yl)phenyl)imidazo[1,2-c]pyrimidin-3-amine]: the IC50 at BRD4 (setting [3]) was 20.7 µM.
With `COc1cc(-c2c(C)noc2C)ccc1-c1nc2cnccn2c1NC(C)(C)C` [Compound 39a, N-(tert-butyl)-2-(4-(3,5-dimethylisoxazol-4-yl)-2-methoxyphenyl)imidazo[1,2-a]pyrazin-3-amine], the IC50 on BRD4 (setting [4]) came to 0.562 µM.
In the case of `Cc1noc(C)c1-c1ccc(-c2nc3cnccn3c2NCC(=O)OC(C)(C)C)cc1` [Compound 24a, Tert-butyl (2-(4-(3,5-dimethylisoxazol-4-yl)phenyl)imidazo[1,2-a]pyrazin-3-yl)glycinate], the 50% inhibitory concentration (IC50) at BRD4 (setting [3]) turned out to be 4.96 µM.
As to `Cc1noc(C)c1-c1ccc(-c2nc3cnccn3c2N[C@@H](C)c2ccccc2)cc1` [Compound 21a, (S)-2-(4-(3,5-dimethylisoxazol-4-yl)phenyl)-N-(1-phenylethyl)imidazo[1,2-a]pyrazin-3-amine], the IC50 at BRD4 (setting [3]) is 2.86 µM.
On the same count and under the same terms, for `Cc1noc(C)c1-c1ccc(-c2nc3ccc(C(=O)O)cn3c2NC(C)(C)C)cc1` [Compound 30a, 3-(Tert-butylamino)-2-(4-(3,5-dimethylisoxazol-4-yl)phenyl)imidazo[1,2-a]pyridine-6-carboxylic acid] the value was 0.968 µM.
On to `Cc1noc(C)c1-c1cccc(C2Nc3ccccc3NC3=C2C(=O)OC3)c1` (centres unmarked) [UMB27, 10-(3-(3,5-Dimethylisoxazol-4-yl)phenyl)-3,4,9,10-tetrahydro-1H-benzo[b]furo[3,4-e][1,4]diazepin-1-one], for which the EC50 is 207 µM in test [1] and more than 100 µM in test [1] (read-out: 797--EC50 (μM)). Further, the IC50 at BRD4 (setting [2]) turned out to be 2.05 µM; on BRD4 (read-out: BRD4--IC50, Table 5, biochemical) it was 2.05 µM.
Regarding `Cc1noc(C)c1-c1ccc(-c2nc3ccc(Cl)cn3c2NC(C)(C)C)cc1` [UMB31, N-(t-Butyl)-6-chloro-2-(4-(3,5-dimethylisoxazol-4-yl)phenyl)-imidazo-[1,2-α]pyridin-3-amine], the concentration giving a half-maximal response (EC50) in test [1] and in test [1] (read-out: 797--EC50 (μM)) was 2.19 µM throughout. The IC50 at BRD4 (setting [2]) and at BRD4 (setting [3]) was 1.17 µM each time.
With `Cc1ccc2nc(-c3ccc(-c4c(C)noc4C)cc3)c(NC(C)(C)C)n2c1` [Compound 27a, N-(tert-butyl)-2-(4-(3,5-dimethylisoxazol-4-yl)phenyl)-6-methylimidazo[1,2-a]pyridin-3-amine], the IC50 on BRD4 (setting [3]) turned out to be 3.17 µM.
As to `CCOC(=O)CNc1c(-c2ccc(-c3c(C)noc3C)cc2)nc2cnccn12` [Compound 23a, Ethyl 2-((2-(4-(3,5-dimethylisoxazol-4-yl)phenyl)imidazo[1,2-a]pyrazin-3-yl)amino)acetate], on BRD4 (setting [3]), the IC50 was 4.53 µM.
Regarding `Cc1noc(C)c1-c1ccc(-c2nc3c(C(F)(F)F)cccn3c2NC(C)(C)C)cc1` [Compound 28a, N-(tert-butyl)-2-(4-(3,5-dimethylisoxazol-4-yl)phenyl)-8-(trifluoromethyl)imidazo[1,2-a]pyridin-3-amine], the 50% inhibitory concentration (IC50) on BRD4 (setting [3]) stood at 11.9 µM.
